In ChEMBL document CHEMBL4665648, “Potent and selective inhibitors of receptor-interacting protein kinase 1 that lack an aromatic back pocket group” (Bioorg Med Chem Lett, 2019):

Tests used:
[1] = Volume of distribution in Sprague-Dawley rat at 0.5 mg/kg, iv or 2 mg/kg, po; format: ADME, organism-based; details: in vivo
[2] = target: Ephrin type-A receptor 3 (Homo sapiens) (UniProt P29320); experiment: Inhibition of tracer 236 binding to recombinant human His-tagged EPHA3 (569 to 976 residues) expressed in baculovirus expression system at 10 uM incubated for 60 mins by Lanthascreen assay relative to control
[3] = target: RAC-alpha serine/threonine-protein kinase (Homo sapiens) (UniProt P31749); experiment: Inhibition of recombinant human His-tagged full length AKT1 expressed in baculovirus expression system using Ser/Thr 06 as substrate at 10 uM incubated for 60 mins by Z'-Lyte assay relative to control
[4] = target: Activin receptor type-2B (Homo sapiens) (UniProt Q13705); experiment: Inhibition of tracer 178 binding to recombinant human GST-tagged ACVR2B (185 to 488 residues) expressed in baculovirus expression system at 10 uM incubated for 60 mins by Lanthascreen assay relative to control
[5] = target: CDK9/cyclin T1 (Homo sapiens) (UniProt O60563+P50750); experiment: Inhibition of recombinant human His-tagged full length CDK9/Cyclin T1 expressed in baculovirus expression system using CDK7/9tide as substrate at 10 uM incubated for 60 mins by Adapta assay relative to control
[6] = target: Casein kinase I isoform gamma-1 (Homo sapiens) (UniProt Q9HCP0); experiment: Inhibition of recombinant human GST-tagged full length CK1gamma1 expressed in baculovirus expression system using Ser/Thr 05 as substrate at 10 uM incubated for 60 mins by Z'-Lyte assay relative to control
[7] = target: Dual specificity protein kinase CLK4 (Homo sapiens) (UniProt Q9HAZ1); experiment: Inhibition of tracer 236 binding to recombinant human GST-tagged full length CLK4 expressed in baculovirus expression system at 10 uM incubated for 60 mins by Lanthascreen assay relative to control
[8] = target: Tyrosine-protein kinase CSK (Homo sapiens) (UniProt P41240); experiment: Inhibition of recombinant human GST-tagged full length CSK expressed in Escherichia coli expression system using Tyr 02 as substrate at 10 uM incubated for 60 mins by Z'-Lyte assay relative to control
[9] = target: Calcium/calmodulin-dependent protein kinase type II subunit beta (Homo sapiens) (UniProt Q13554); experiment: Inhibition of recombinant human His-tagged full length CAMK2beta expressed in baculovirus expression system using Ser/Thr 04 as substrate at 10 uM incubated for 60 mins by Z'-Lyte assay relative to control
[10] = target: DNA-dependent protein kinase catalytic subunit (Homo sapiens) (UniProt P78527); experiment: Inhibition of recombinant human untagged full length DNA-PK expressed in baculovirus expression system using Ser/Thr 26 as substrate at 10 uM incubated for 60 mins by Z'-Lyte assay relative to control
[11] = target: Epidermal growth factor receptor (Homo sapiens) (UniProt P00533); experiment: Inhibition of recombinant human GST-tagged EGFR (668 to 1210 residues) expressed in baculovirus expression system using Tyr 4 as substrate at 10 uM incubated for 60 mins by Z'-Lyte assay relative to control
[12] = test system: Epidermal growth factor receptor (Homo sapiens), P00533 [L858R,T790M]; experiment: Inhibition of recombinant human GST-tagged EGFR T790M/L858R double mutant (668 to 1210 residues) expressed in baculovirus expression system using Tyr 4 as substrate at 10 uM incubated for 60 mins by Z'-Lyte assay relative to control
[13] = target: Ephrin type-B receptor 3 (Homo sapiens) (UniProt P54753); experiment: Inhibition of recombinant human GST-tagged EPHB3 (623 to 907 residues) expressed in baculovirus expression system using Tyr 02 as substrate at 10 uM incubated for 60 mins by Z'-Lyte assay relative to control
[14] = target: Receptor tyrosine-protein kinase erbB-2 (Homo sapiens) (UniProt P04626); experiment: Inhibition of recombinant human His-tagged ERBB2 (676 to 1255 residues) expressed in baculovirus expression system using Tyr 06 as substrate at 10 uM incubated for 60 mins by Z'-Lyte assay relative to control
[15] = target: Fibroblast growth factor receptor 1 (Homo sapiens) (UniProt P11362); experiment: Inhibition of recombinant human His-tagged FGFR1 (308 to 731 residues) expressed in baculovirus expression system using Tyr 01 as substrate at 10 uM incubated for 60 mins by Z'-Lyte assay relative to control
[16] = target: Fibroblast growth factor receptor 3 (Homo sapiens) (UniProt P22607); experiment: Inhibition of recombinant human His-tagged FGFR3 (399 to 806 residues) expressed in baculovirus expression system using Tyr 04 as substrate at 10 uM incubated for 60 mins by Z'-Lyte assay relative to control
[17] = target: G protein-coupled receptor kinase 6 (Homo sapiens) (UniProt P43250); experiment: Inhibition of recombinant human GST-tagged full length GRK6 expressed in baculovirus expression system using Ser/Thr 16 as substrate at 10 uM incubated for 60 mins by Z'-Lyte assay relative to control
[18] = target: Tyrosine-protein kinase JAK2 (Homo sapiens) (UniProt O60674); experiment: Inhibition of recombinant human GST-tagged JAK2 (809 to 1153 residues) expressed in baculovirus expression system using Tyr 06 as substrate at 10 uM incubated for 60 mins by Z'-lyte assay relative to control
[19] = target: MAP kinase-activated protein kinase 3 (Homo sapiens) (UniProt Q16644); experiment: Inhibition of recombinant human His-tagged full length MAPKAPK3 expressed in baculovirus expression system using Ser/Thr 04 as substrate at 10 uM incubated for 60 mins by Z'-lyte assay relative to control
[20] = target: Mitogen-activated protein kinase kinase kinase 9 (Homo sapiens) (UniProt P80192); experiment: Inhibition of recombinant human GST-tagged MLK1 (1 to 500 residues) expressed in baculovirus expression system using Ser/Thr 07 as substrate at 10 uM incubated for 60 mins by Z'-lyte assay relative to control
[21] = target: Serine/threonine-protein kinase PAK 1 (Homo sapiens) (UniProt Q13153); experiment: Inhibition of recombinant human GST-tagged full length PAK1 expressed in baculovirus expression system using Ser/Thr 19 as substrate at 10 uM incubated for 60 mins by Z'-lyte assay relative to control
[22] = target: Macrophage-stimulating protein receptor (Homo sapiens) (UniProt Q04912); experiment: Inhibition of recombinant human GST-tagged full length RON (983 to 1400 residues) expressed in baculovirus expression system using Tyr 06 as substrate at 10 uM incubated for 60 mins by Z'-Lyte assay relative to control
[23] = target: Serine/threonine-protein kinase SIK2 (Homo sapiens) (UniProt Q9H0K1); experiment: Inhibition of SIK2 (unknown origin) by selectscreen kinase assay; details: dose 10.0 µM, time 60.0 min
[24] = target: Mitogen-activated protein kinase 11 (Homo sapiens) (UniProt Q15759); experiment: Inhibition of recombinant human His-tagged full length p38 beta expressed in baculovirus expression system using Ser/Thr 15 as substrate at 10 uM incubated for 60 mins by Z'-Lyte assay relative to control

Sequence of DNA-dependent protein kinase catalytic subunit (Homo sapiens) (P78527 whole entry, the tested form may be a part): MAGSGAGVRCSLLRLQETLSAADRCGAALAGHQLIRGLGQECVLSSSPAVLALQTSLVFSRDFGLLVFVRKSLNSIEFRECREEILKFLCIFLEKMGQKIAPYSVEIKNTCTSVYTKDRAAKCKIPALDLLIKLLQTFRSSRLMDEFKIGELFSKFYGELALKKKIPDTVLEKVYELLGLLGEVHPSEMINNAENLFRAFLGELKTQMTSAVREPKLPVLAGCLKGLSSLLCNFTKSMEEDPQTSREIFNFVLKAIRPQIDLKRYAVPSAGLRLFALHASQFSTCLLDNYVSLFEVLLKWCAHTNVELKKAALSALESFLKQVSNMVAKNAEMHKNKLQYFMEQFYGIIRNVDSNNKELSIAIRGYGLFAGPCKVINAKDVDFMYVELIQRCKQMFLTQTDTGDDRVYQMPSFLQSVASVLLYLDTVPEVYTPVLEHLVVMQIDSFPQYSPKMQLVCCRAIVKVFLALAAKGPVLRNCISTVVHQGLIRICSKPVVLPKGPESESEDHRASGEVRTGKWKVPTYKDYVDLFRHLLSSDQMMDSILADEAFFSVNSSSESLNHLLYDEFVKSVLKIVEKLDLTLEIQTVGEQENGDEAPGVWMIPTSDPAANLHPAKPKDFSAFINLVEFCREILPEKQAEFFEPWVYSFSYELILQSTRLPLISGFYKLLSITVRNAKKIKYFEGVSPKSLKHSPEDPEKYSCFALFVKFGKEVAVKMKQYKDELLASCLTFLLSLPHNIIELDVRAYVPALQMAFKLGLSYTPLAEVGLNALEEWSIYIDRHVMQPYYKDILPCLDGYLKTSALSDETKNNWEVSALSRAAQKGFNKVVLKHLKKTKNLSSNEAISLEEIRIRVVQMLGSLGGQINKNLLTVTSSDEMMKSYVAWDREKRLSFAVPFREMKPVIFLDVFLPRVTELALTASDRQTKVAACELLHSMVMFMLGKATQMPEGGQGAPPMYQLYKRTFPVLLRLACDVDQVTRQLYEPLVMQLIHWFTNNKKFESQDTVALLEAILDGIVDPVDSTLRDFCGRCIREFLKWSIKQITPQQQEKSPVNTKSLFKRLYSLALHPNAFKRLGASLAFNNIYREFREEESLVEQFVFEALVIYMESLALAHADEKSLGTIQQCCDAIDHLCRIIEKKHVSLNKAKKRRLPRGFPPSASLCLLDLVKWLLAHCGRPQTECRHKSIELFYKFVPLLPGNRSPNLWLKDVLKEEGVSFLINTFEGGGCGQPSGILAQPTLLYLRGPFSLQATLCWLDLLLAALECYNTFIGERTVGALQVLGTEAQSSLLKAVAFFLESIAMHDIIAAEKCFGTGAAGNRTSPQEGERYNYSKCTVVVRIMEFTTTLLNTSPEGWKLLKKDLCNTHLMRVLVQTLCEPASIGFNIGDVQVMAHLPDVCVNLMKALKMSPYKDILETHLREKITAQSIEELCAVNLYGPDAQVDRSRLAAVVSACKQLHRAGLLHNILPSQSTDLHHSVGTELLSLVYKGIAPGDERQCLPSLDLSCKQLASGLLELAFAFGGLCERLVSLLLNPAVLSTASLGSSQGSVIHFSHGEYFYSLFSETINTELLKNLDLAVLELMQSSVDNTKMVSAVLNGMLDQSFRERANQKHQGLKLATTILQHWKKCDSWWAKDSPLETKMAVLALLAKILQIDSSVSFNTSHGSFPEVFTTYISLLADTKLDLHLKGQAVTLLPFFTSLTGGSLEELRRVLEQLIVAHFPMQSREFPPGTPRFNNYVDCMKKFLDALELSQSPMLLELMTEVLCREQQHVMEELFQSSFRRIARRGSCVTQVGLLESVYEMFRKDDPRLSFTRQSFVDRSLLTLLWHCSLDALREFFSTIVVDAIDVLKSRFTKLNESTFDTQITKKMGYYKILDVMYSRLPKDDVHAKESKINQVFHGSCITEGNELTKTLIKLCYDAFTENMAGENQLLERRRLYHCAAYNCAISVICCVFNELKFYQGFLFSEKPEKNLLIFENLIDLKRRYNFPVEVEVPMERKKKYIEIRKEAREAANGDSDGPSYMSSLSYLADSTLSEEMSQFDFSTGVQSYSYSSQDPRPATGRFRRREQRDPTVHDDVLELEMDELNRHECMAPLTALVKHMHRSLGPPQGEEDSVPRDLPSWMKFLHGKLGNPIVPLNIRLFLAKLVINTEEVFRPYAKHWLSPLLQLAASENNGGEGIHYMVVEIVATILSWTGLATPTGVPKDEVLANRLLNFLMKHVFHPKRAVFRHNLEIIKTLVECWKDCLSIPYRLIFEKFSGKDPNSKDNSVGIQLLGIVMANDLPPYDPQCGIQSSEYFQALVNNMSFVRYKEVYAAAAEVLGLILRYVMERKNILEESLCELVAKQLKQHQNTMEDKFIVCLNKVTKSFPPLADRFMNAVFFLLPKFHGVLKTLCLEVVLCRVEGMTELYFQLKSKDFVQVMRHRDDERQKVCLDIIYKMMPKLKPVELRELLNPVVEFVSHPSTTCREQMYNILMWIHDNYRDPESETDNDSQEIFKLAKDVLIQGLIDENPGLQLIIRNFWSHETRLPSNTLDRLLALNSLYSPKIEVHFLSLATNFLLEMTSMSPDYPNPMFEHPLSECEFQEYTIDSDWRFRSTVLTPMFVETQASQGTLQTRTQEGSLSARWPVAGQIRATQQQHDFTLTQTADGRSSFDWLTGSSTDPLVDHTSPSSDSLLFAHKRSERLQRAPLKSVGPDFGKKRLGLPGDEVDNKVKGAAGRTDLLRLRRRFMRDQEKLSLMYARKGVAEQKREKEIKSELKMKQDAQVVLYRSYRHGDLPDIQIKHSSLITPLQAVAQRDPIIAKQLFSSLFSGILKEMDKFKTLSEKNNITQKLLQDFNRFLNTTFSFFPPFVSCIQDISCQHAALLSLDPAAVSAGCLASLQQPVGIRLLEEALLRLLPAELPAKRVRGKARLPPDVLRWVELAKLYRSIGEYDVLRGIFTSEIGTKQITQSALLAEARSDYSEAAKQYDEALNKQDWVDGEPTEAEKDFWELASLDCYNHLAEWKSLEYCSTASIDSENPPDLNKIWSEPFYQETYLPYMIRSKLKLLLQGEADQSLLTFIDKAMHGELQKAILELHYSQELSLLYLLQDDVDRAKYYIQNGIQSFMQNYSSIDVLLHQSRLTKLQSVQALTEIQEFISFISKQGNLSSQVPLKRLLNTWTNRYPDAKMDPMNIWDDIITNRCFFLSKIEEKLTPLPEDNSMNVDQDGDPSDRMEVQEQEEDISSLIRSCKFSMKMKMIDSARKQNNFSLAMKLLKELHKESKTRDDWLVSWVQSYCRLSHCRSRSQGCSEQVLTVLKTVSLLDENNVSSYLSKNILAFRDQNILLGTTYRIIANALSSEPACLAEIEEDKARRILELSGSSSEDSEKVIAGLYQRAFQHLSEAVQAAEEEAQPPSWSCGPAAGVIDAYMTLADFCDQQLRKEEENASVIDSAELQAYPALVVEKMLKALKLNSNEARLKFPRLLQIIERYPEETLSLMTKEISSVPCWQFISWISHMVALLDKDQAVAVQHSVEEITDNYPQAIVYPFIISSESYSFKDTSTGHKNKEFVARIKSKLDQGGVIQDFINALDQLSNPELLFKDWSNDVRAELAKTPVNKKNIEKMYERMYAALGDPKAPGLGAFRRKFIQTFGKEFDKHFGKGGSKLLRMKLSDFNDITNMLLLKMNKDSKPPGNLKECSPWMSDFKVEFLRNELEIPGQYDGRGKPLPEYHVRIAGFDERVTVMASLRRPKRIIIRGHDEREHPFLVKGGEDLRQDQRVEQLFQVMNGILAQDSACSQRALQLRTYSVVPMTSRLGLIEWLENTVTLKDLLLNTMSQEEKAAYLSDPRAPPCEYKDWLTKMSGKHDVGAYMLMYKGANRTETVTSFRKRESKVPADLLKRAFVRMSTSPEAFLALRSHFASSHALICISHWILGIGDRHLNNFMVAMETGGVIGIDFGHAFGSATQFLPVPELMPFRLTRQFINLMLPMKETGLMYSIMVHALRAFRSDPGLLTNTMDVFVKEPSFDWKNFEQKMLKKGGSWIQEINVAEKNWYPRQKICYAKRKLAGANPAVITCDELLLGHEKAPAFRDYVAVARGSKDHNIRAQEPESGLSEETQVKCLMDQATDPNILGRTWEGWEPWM
Sequence of Fibroblast growth factor receptor 1 (Homo sapiens) (P11362 22-822 limits assumed): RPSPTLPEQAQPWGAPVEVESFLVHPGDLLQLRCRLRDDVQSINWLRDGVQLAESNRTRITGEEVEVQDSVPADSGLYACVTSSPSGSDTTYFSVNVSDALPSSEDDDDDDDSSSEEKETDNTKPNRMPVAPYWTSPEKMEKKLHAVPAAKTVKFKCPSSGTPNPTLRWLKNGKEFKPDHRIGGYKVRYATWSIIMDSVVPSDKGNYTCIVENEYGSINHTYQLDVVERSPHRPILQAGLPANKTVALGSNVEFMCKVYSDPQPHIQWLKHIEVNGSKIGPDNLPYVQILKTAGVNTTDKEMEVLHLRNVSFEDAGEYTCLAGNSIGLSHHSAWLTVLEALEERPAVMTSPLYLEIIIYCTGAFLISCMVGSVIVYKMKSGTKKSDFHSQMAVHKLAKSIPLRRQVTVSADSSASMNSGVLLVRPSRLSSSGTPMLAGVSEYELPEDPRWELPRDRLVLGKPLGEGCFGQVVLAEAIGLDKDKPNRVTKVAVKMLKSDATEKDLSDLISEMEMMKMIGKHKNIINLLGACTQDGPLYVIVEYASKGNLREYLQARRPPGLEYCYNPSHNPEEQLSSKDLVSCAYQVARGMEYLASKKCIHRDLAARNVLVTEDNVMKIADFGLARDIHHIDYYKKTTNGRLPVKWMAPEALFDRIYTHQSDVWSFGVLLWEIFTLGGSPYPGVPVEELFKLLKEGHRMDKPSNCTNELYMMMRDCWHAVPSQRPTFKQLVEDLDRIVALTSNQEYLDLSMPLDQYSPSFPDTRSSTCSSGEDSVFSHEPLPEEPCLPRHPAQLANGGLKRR

In the case of `CN1C(=O)[C@@H](NC(=O)c2n[nH]c3ncc(C(F)(F)C(F)(F)F)cc23)COc2ccccc21`, the Vd [1] is reported as 2.8 L/kg, the inhibition [2] is reported as 5.5% and the inhibition [3] is reported as -0.5%. It also gave an inhibition [4] of -0.5%, an inhibition [5] of 6% and an inhibition [6] of 5%. For the same compound, the inhibition [7] was 18%, the inhibition [8] was 2.5% and the inhibition [9] was -1%. It also gave an inhibition [10] of 4.5%, an inhibition [11] of -5% and an inhibition [12] of 7%. It also gave an inhibition [13] of 1%, an inhibition [14] of 2% and an inhibition [15] of 0%. It also gave an inhibition [16] of 0.5%, an inhibition [17] of -0.5% and an inhibition [18] of 0%. The inhibition [19] was 0.5%, the inhibition [20] was 9% and the inhibition [21] was 0.5%. The inhibition [22] was 6%, the inhibition [23] was 3% and the inhibition [24] was 9%.
